Ends that are not written are not given here. Peptide text beside a SMILES is read from it. * marks the point of attachment. Biotin = O=C1N[C@H]2[C@H](CS[C@H]2CCCCC(=O)*)N1
Key:
Assay in all cases: G' assay (10 uM PL peptide), results of TABLE 7 and TABLE 12
Assay type in all cases: binding
[1] = target: T1, PDZ protein (GST-PDZ fusion) (Homo sapiens, UniProt P50479); conditions: PDZ LIM RIL, PDZ Domain 1
T1 construct: made in house; host or cells: E. coli (DH5alpha, BL21 or JM109)
T1 sequence (P50479 1-330): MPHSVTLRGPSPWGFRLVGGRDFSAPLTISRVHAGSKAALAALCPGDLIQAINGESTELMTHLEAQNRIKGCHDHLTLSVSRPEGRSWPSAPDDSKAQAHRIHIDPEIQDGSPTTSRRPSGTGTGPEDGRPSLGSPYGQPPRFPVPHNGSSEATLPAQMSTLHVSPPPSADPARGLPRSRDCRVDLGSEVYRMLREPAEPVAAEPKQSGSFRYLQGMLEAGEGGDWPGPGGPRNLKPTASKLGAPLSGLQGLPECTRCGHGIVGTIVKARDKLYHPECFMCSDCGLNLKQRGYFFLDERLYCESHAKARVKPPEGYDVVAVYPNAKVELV
Method in brief: (§1)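 Biotin-PL peptide (N-term label), 10 uM vs GST-PDZ; protein 5 ug/ml by default. A450 nm binned: 1 = 0-1, 2 = 1-2, 3 = 2-3, 4 = 3-4, 5 = >4 on >2 repeats, 0 = no binding.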

[2] = target: T2, PDZ protein (GST-PDZ fusion) (Homo sapiens, UniProt Q9NSN8); conditions: PDZ Syntrophin gamma-1, PDZ Domain 1
T2 construct: made in house; host or cells: E. coli (DH5alpha, BL21 or JM109)
T2 sequence (Q9NSN8 1-517): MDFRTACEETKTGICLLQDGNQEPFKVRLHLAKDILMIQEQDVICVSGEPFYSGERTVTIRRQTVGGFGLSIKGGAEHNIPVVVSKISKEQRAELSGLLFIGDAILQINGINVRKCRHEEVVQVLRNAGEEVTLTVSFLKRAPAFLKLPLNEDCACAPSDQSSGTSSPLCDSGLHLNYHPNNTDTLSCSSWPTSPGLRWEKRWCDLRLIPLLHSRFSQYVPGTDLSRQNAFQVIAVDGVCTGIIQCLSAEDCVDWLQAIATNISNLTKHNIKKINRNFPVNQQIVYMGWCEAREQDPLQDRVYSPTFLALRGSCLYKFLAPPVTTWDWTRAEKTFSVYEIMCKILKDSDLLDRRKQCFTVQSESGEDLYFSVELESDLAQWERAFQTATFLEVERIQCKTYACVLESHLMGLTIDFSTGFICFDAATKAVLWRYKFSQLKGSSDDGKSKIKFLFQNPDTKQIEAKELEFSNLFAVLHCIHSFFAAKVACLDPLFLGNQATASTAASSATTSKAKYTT
Method in brief: as §1

[3] = target: T3, PDZ protein (GST-PDZ fusion) (Homo sapiens, UniProt O14641); conditions: PDZ DVL2, PDZ Domain 1
T3 construct: made in house; host or cells: E. coli (DH5alpha, BL21 or JM109)
T3 sequence (O14641 1-736): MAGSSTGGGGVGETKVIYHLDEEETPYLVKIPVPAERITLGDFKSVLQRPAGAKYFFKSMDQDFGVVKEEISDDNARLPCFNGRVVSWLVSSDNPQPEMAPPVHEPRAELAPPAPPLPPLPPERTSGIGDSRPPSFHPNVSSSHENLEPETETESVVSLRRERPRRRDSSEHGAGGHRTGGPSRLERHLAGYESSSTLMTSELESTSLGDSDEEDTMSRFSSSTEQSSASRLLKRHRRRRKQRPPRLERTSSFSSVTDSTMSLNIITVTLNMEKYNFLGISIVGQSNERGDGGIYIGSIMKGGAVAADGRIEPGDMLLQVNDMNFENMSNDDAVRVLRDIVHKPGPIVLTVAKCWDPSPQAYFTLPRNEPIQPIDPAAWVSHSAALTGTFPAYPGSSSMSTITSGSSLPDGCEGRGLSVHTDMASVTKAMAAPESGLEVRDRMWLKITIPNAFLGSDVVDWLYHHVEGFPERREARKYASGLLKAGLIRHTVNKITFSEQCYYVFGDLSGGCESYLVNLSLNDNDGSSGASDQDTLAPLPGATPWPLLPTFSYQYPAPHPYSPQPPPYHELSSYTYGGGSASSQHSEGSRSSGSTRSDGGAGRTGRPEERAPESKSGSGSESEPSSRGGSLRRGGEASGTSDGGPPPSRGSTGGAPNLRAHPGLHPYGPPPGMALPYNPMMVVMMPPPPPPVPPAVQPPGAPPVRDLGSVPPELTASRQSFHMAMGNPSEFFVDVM
Method in brief: as §1

| Compound | Classification [1] | Classification [2] | Classification [3] |
| --- | --- | --- | --- |
| LASKSAEEGKQIPDSLSTDL (Biotin-LASKSAEEGKQIPDSLSTDL) [Dock2] | 1 (A450 nm 0-1) | – | – |
| CC[C@H](C)[C@H](NC(=O)[C@H](Cc1c[nH]cn1)NC(=O)[C@H](C)NC(=O)[C@H](C)NC(=O)[C@H](CO)NC(=O)[C@@H]1CCCN1C(=O)[C@H](CCCNC(=N)N)NC(=O)[C@H](CC(=O)O)NC(=O)[C@H](CCCCN)NC(=O)[C@@H]1CCCN1C(=O)[C@H](CC(=O)O)NC(=O)[C@H](CCC(=O)O)NC(=O)CCCC[C@@H]1SC[C@@H]2NC(=O)N[C@@H]21)C(=O)N[C@H](C(=O)N[C@@H](CCC(=O)O)C(=O)N[C@@H](C)C(=O)N[C@@H](CC(C)C)C(=O)N[C@@H](CCC(=O)O)C(=O)N[C@H](C(=O)N[C@@H](CC(=O)O)C(=O)N[C@H](C(=O)O)C(C)C)[C@@H](C)O)C(C)C [PDZ-binding kinase (PBK)] (Biotin-EDPKDRPSAAHIVEALETDV-OH; C-terminus assumed) | – | 1 (A450 nm 0-1) | – |
| KTMPAATYRLLTGQEQPVYL (Biotin-KTMPAATYRLLTGQEQPVYL) [MINT-3] | – | – | 1 (A450 nm 0-1) |
| A2AC_HUMAN (Modified) (Biotin-DFRPSFKHILFRRARRGFRQ; not fully specified) | – | – | 3 (A450 nm 2-3) |
| CC[C@H](C)[C@H](NC(=O)[C@H](CCC(N)=O)NC(=O)[C@@H](NC(=O)[C@H](Cc1c[nH]cn1)NC(=O)[C@H](CCC(N)=O)NC(=O)[C@H](CC(=O)O)NC(=O)[C@H](CCC(=O)O)NC(=O)[C@H](CC(=O)O)NC(=O)[C@H](Cc1ccccc1)NC(=O)[C@@H]1CCCN1C(=O)[C@H](CCC(=O)O)NC(=O)[C@H](CC(N)=O)NC(=O)[C@H](CCC(=O)O)NC(=O)[C@@H]1CCCN1C(=O)[C@H](CC(=O)O)NC(=O)[C@H](CO)NC(=O)[C@H](CC(=O)O)NC(=O)CCCC[C@@H]1SC[C@@H]2NC(=O)N[C@@H]21)[C@@H](C)O)C(=O)N[C@H](C(=O)N[C@@H](CCCCN)C(=O)N[C@H](C(=O)O)C(C)C)[C@@H](C)O [PTEN] | – | 1 (A450 nm 0-1) | – |
| PYSELNYETSHYPASPDSWV (Biotin-PYSELNYETSHYPASPDSWV) [catenin - delta 2] | 2 (A450 nm 1-2) | 1 (A450 nm 0-1) | – |
| ALVLIAFCIIRRRPSAYQAL (Biotin-ALVLIAFCIIRRRPSAYQAL) [CD68] | – | – | 2 (A450 nm 1-2) |
| CC[C@H](C)[C@H](NC(=O)[C@H](Cc1ccc(O)cc1)NC(=O)[C@H](CC(C)C)NC(=O)[C@H](CCC(N)=O)NC(=O)[C@H](Cc1c[nH]cn1)NC(=O)[C@H](CO)NC(=O)[C@H](C)NC(=O)[C@H](CC(C)C)NC(=O)[C@@H](NC(=O)[C@H](CC(=O)O)NC(=O)[C@H](CCSC)NC(=O)[C@H](Cc1ccccc1)NC(=O)[C@@H]1CCCN1C(=O)[C@H](CCCNC(=N)N)NC(=O)[C@@H](NC(=O)[C@H](CC(C)C)NC(=O)[C@H](CC(N)=O)NC(=O)[C@H](CC(=O)O)NC(=O)[C@@H](NC(=O)[C@H](CO)NC(=O)CCCC[C@@H]1SC[C@@H]2NC(=O)N[C@@H]21)[C@@H](C)O)C(C)C)[C@@H](C)O)C(=O)O [presenilin-2] (Biotin-STDNLVRPFMDTLASHQLYI-OH; C-terminus assumed) | – | – | 1 (A450 nm 0-1) |
| A2AA_HUMAN (modified) (Biotin-HDFRRAFKKILARGDRKRIV; not fully specified) | – | 2 (A450 nm 1-2) | – |
| CC(C)C[C@H](NC(=O)[C@H](C)NC(=O)[C@H](CO)NC(=O)CNC(=O)[C@@H](NC(=O)CCCC[C@@H]1SC[C@@H]2NC(=O)N[C@@H]21)[C@@H](C)O)C(=O)N[C@@H](CCC(N)=O)C(=O)N[C@@H](C)C(=O)N[C@@H](Cc1c[nH]c2ccccc12)C(=O)N[C@@H](CCCNC(=N)N)C(=O)N[C@@H](Cc1c[nH]cn1)C(=O)N[C@H](C(=O)N[C@@H](CO)C(=O)N[C@@H](CCCNC(=N)N)C(=O)N[C@@H](CCC(N)=O)C(=O)N[C@@H](C)C(=O)N[C@H](C(=O)N[C@@H](CCC(=O)O)C(=O)N[C@@H](CO)C(=O)N[C@H](C(=O)N[C@H](C(=O)O)C(C)C)[C@@H](C)O)[C@@H](C)O)[C@@H](C)O [HPV E6 #66 (modified)] (Biotin-TGSALQAWRHTSRQATESTV-OH; C-terminus assumed) | – | 1 (A450 nm 0-1) | – |
| KTMPAAMFRLLTGQETPLYI (Biotin-KTMPAAMFRLLTGQETPLYI) [MINT-2] | – | – | 2 (A450 nm 1-2) |
| VHDAESSDEDGYDWGPATDL (Biotin-VHDAESSDEDGYDWGPATDL) [zona occludens 3 (ZO-3)] | 2 (A450 nm 1-2) | – | – |
| CC(C)C[C@H](NC(=O)[C@H](CC(=O)O)NC(=O)[C@H](CO)NC(=O)[C@H](CCC(=O)O)NC(=O)CNC(=O)[C@H](Cc1ccc(O)cc1)NC(=O)[C@H](CC(C)C)NC(=O)[C@H](C)NC(=O)[C@H](CO)NC(=O)[C@H](CO)NC(=O)[C@H](Cc1ccccc1)NC(=O)[C@H](C)NC(=O)[C@H](C)NC(=O)[C@H](Cc1ccc(O)cc1)NC(=O)[C@H](CC(=O)O)NC(=O)[C@H](CC(C)C)NC(=O)[C@H](C)NC(=O)CNC(=O)[C@@H]1CCCN1C(=O)[C@@H](NC(=O)CCCC[C@@H]1SC[C@@H]2NC(=O)N[C@@H]21)C(C)C)C(=O)O [a-actinin 2] (Biotin-VPGALDYAAFSSALYGESDL-OH; C-terminus assumed) | 5 (A450 nm of 4 more than 2× repeated) | 1 (A450 nm 0-1) | – |
| TQGFPGPATWRRISSLESEV | 5 (A450 nm of 4 more than 2× repeated) | 4 (A450 nm 3-4) | – |
| CSCC[C@H](NC(=O)[C@H](C)NC(=O)[C@H](CCCNC(=N)N)NC(=O)CNC(=O)[C@@H](NC(=O)[C@H](Cc1c[nH]c2ccccc12)NC(=O)[C@H](CCCNC(=N)N)NC(=O)CNC(=O)CCCC[C@@H]1SC[C@@H]2NC(=O)N[C@@H]21)[C@@H](C)O)C(=O)N[C@@H](CO)C(=O)N[C@@H](C)C(=O)N[C@@H](Cc1c[nH]c2ccccc12)C(=O)N[C@@H](CCCCN)C(=O)N1CCC[C@H]1C(=O)N[C@H](C(=O)N[C@@H](CCCNC(=N)N)C(=O)N[C@@H](CCCNC(=N)N)C(=O)N[C@@H](CCC(=O)O)C(=O)N[C@H](C(=O)N[C@@H](CCC(=O)O)C(=O)N[C@H](C(=O)O)C(C)C)[C@@H](C)O)[C@@H](C)O [HPV E6 #35 (modified)] (Biotin-GRWTGRAMSAWKPTRRETEV-OH; C-terminus assumed) | 4 (A450 nm 3-4) | 4 (A450 nm 3-4) | – |
| QATSRNGHSARQHVVADTEL (Biotin-QATSRNGHSARQHVVADTEL) [CD34] | 1 (A450 nm 0-1) | – | – |
| CC[C@H](C)[C@H](NC(=O)[C@H](CCC(N)=O)NC(=O)CCCC[C@@H]1SC[C@@H]2NC(=O)N[C@@H]21)C(=O)N[C@@H](CO)C(=O)N1CCC[C@H]1C(=O)NCC(=O)NCC(=O)N[C@@H](CC(C)C)C(=O)N[C@@H](CCC(=O)O)C(=O)N1CCC[C@H]1C(=O)N1CCC[C@H]1C(=O)N[C@@H](CO)C(=O)N[C@@H](CCC(=O)O)C(=O)N[C@@H](CCCCN)C(=O)N[C@@H](Cc1c[nH]cn1)C(=O)N[C@@H](Cc1ccccc1)C(=O)N[C@@H](CCCNC(=N)N)C(=O)N[C@@H](CCC(=O)O)C(=O)N[C@H](C(=O)N[C@@H](CCC(=O)O)C(=O)N[C@H](C(=O)O)C(C)C)[C@@H](C)O [Tax] | 1 (A450 nm 0-1) | 5 (A450 nm of 4 more than 2× repeated) | – |

From patent US20050282743A1, “Molecular interactions in cells” (Arbor Vita Corporation, priority 2001, published 2005)
